Columns and labels:
[1] = system: Saccharomyces cerevisiae BY4741; test: Generation of resistant isolates (serial passaging); type: cell-based; details: from 1/4 MIC, twofold increases, at least 50 generations
Experimental: (§1) Finally, we attempted to generate resistant isolates to understand the rate of resistance and potentially uncover mechanism of action. First, to determine spontaneous rates, we performed high-density plating (~2 × 10^9 cells) of C. neoformans on YPD plates containing 64 µg/mL 1 ([24]). […] Next, we employed serial passaging of both C. neoformans H99 and Saccharomyces cerevisiae BY4741 to evaluate evolved resistance upon exposure to sub-MIC concentrations. Yeast cells were grown in a 96-well format in the presence of 1/4 MIC 1, then cultures were passaged to fresh media containing a twofold increase in drug concentration. At each passage, the inoculum was diluted ~1:100 to allow ~10 generations of growth for a total of at least 50 generations over the course of the experiment.

[2] = system: S. cerevisiae heterozygous mutants; test: Chemical haploinsufficiency screen and spot dilution validation; type: cell-based; details: Saccharomyces cerevisiae, read-out: inhibition of wild-type growth
[3] = system: S. cerevisiae heterozygous mutants; test: as above; type: cell-based, Saccharomyces cerevisiae; details: YPD 32 µg/mL 1, relative to WT
Experimental: Chemical genetics screening was performed using the Saccharomyces heterozygous deletion collection (Transomic Technologies, TKY3504). Mutant strains were grown overnight in 200 µL YPD in a 96-well plate then pinned into 25 µL PBS using a 96-floating pin multiblot replicator (V&P Scientific Inc, Cat # 408FP6) and library copier (V&P Scientific Inc, Cat # 381). Cell dilutions were then pinned onto an Omni Tray (Nunc, Cat # 242811) single-well plate containing YPD with DMSO or 32 µg/mL 1 for a total of 384 spots per plate. Each plate contained at least one wild type control. Plates were incubated at 30°C and imaged every 24 hours for 4 days. Hits were called by visual evaluation. To validate hits and score growth phenotypes, serial dilutions of OD = 1.0, 0.1, 0.01, and 0.001 were prepared for each mutant from a 200 µL YPD overnight culture in a 96-well plate. Three microliters of each dilution was spotted on YPD containing DMSO or 32 µg /mL 1 and incubated for 72 hours at 30°C. The growth of each mutant on 1 was scored compared to wild-type controls as no inhibition (++++), modest (+++), or severe (+/++) growth inhibition.

[4] = system: C. neoformans; test: C. neoformans time kill assay; type: cell-based, Cryptococcus neoformans
Experimental: Overnight cultures of H99 were enumerated and diluted 1 × 10^5 CFU/mL in YPD with 4 µg/mL 1, 8 µg/mL 1, or DMSO. Cultures were incubated at 37°C with shaking for 30 hours with sampling at t = 0, 2, 4, 6, 8, 24, and 30 hours, then 10-fold serial dilutions of each sample were prepared and spotted on YPD. Viable colonies were enumerated after 48 hours at 30°C. Data are representative of two independent experiments performed in biological triplicate with technical duplicates.

[5] = system: C. neoformans H99; test: Generation of resistant isolates (high-density plating, serial passaging); type: cell-based, Cryptococcus neoformans
Experimental: as §1

[6] = system: sheep red blood cells; test: Hemolysis assay; type: cell-based; details: 2 hours at RT
Experimental: Hemolysis assays were performed with defibrinated sheep’s blood (Lampire, Cat # 7239001). Blood was washed three times with PBS then resuspended to ~50% hematocrit in PBS. Drugs were diluted to generate a twofold dilution series in 200 µL PBS with equal DMSO concentration across the series, then red blood cells were added for a final concentration of 2% hematocrit. Cells were incubated at RT for 2 hours in a v-bottom microtiter plate; then, plates were spun down; and the supernatant was transferred to a flat-bottomed microtiter plate for absorbance measurement at 570 nm. Drugs were tested in technical triplicate in at least two independent assays performed on different lots of blood.

[7] = system: C. neoformans MAPK mutants; test: C. neoformans competition assay with MAPK mutants; type: cell-based, Cryptococcus neoformans; details: 1.5 µg/mL 1, 24 hours, 37°C
Experimental: H99-mNeon and MAPK mutants (obtained from the C. neoformans kinase deletion collection, FGSC) were grown overnight in YPD at 30°C then washed in PBS. Each strain was counted and diluted into 96-well plates such that each well contained 1 × 10^3 CFU/strain with 1.5 µg/mL 1 or DMSO in 100 µL total volume. Plates were incubated at 37°C for 24 hours before analyzing on an Attune NxT Flow Cytometer with CytKick autosampler and Attune Cytometric software. Gating strategy was optimized for single cells as previously described ([50]). mNeonGreen positive and negative populations were identified by histogram plot with 100,000 cells counted per sample. Data represent mean and SD of biological triplicate and are representative of two independent experiments.

OC1CC(c2cc(N3CCC(CCc4ccccc4)CC3)ncn2)C1 (centres unmarked) [compound 1]
evolved resistance, serial passaging [1]: did not recover stable resistance
inhibition at 32 µg/mL [2]: ~50%
Growth ([3]; mutant YDR361C BCP1): +++
Growth ([3]; mutant YDR362C TFC6): +++
Growth ([3]; mutant YDR373W FRQ1): +++
Growth ([3]; mutant YDR416W SYF1): +++
Growth ([3]; mutant YER012W PRE1): +++
Growth ([3]; mutant YFR051C RET2): +++
Growth ([3]; mutant YGL047W ALG14): ++
Growth ([3]; mutant YGL116W CDC20): +++
Growth ([3]; mutant YGR190C Dubious_HIP1 overlap): +++
Growth ([3]; mutant YGR191W HIP1): +++
Growth ([3]; mutant YGR216C GPI1): +++
Growth ([3]; mutant YHR062C RPP1): +++
Growth ([3]; mutant YHR068W DYS1): ++
Growth ([3]; mutant YHR072W ERG7): +++
Growth ([3]; mutant YHR107C CDC12): +++
Growth ([3]; mutant YHR122W CIA2): +++
Growth ([3]; mutant YHR143W-A RPC10): ++
Growth ([3]; mutant YIL033C BCY1): +++
Growth ([3]; mutant YIL104C SHQ1): +++
Growth ([3]; mutant YIL109C SEC24): +++
Growth ([3]; mutant YIL144W NDC80): +++
Growth ([3]; mutant YIL147C SLN1): +++
Growth ([3]; mutant YIL150C MCM10): +++
Growth ([3]; mutant YIL171W): ++
Growth ([3]; mutant YIR012W SQT1): +++
Growth ([3]; mutant YKL049C CSE4): +++
Growth ([3]; mutant YKL108W SLD2): ++
Growth ([3]; mutant YKL154W SRP102): ++
Growth ([3]; mutant YKL180W RPL17A): ++
Growth ([3]; mutant YKL189W HYM1): ++
Growth ([3]; mutant YML085C TUB1): +
Growth ([3]; mutant YMR185W RTP1): +++
Growth ([3]; mutant YMR277W FCP1): +++
Growth ([3]; mutant YMR314W PRE5): +++
Growth ([3]; mutant YNL287W SEC21): +++
Growth ([3]; mutant YPL131W RPL5): +++
Growth ([3]; mutant YPL142C (no gene name)): +
Growth ([3]; mutant YPL143W RPL33A): +
Growth ([3]; mutant YPL235W RVB2): +
Growth ([3]; mutant YPL237W SUI3): +
Growth ([3]; mutant YPR035W GLN1): +++
Growth ([3]; mutant YPR136C Dubious_RRP9 overlap): ++
Growth ([3]; mutant YPR181C SEC23): +
Growth ([3]; mutant YPR187W RPO26): +
propidium iodide staining of C. neoformans vs vehicle ([4]; 8 µg/mL, 24 hours post treatment (Fig. S1)): did not observe changes in propidium iodide
type of activity (time kill) ([4]; 2× (4 µg/mL) or 4× (8 µg/mL) MIC over 30 hours): fungistatic
viable CFUs vs vehicle-treated controls ([4]; 4 or 8 µg/mL, 8, 24 and 30 hours post-treatment): significantly reduced
evolved resistance, serial passaging ([5]; from 1/4 MIC, twofold increases, at least 50 generations): did not recover stable resistance
spontaneous resistance, high-density plating ([5]; ~2 × 10^9 cells on YPD with 64 µg/mL 1): unable to isolate resistant colonies
LD50 (hemolysis) ([6]; 2% hematocrit): 350 µg/mL
hemolysis of red blood cells ([6]; up to 128 µg/mL): did not observe hemolysis
reduction of mutant in competition with H99-GFP ([7]; ∆hog1): 20%
reduction of mutant in competition with H99-GFP ([7]; ∆pbs2): 60%
reduction of mutant in competition with H99-GFP ([7]; ∆ssk2): 63%

— publication PMC11302339, “A series of pyrimidine-based antifungals with anti-mold activity disrupt ER function in Aspergillus fumigatus” (Microbiology Spectrum, 2024)
